Results: US20130317045A1, “THIENOPYRIDINE AND THIENOPYRIMIDINE COMPOUNDS AND METHODS OF USE THEREOF” (AMBIT BIOSCIENCES CORPORATION, priority 2010, published 2013)

Key:
[1] = target: T1, TYK2 (Homo sapiens, UniProt P29597); test: Competition binding assay, TYK2
T1 construct: made in house
Text: (§1) Competition Binding Assay to Determine Binding Constants (Kd) of the Compounds Against JAK Kinases
(§2) Competition binding assays used herein were developed, validated and performed as described in Fabian et al., Nature Biotechnology 2005, 23,329-336. Kinases were produced as fusions to T7 phage (See, Fabian et al. or WO04/015142) or alternatively, the kinases were expressed in HEK-293 cells and subsequently tagged with DNA for PCR detection (See, WO08/005310). For the binding assays, streptavidin-coated magnetic beads were treated with biotinylated affinity ligands for 30 min at rt to generate affinity resins. The liganded beads were blocked with excess biotin and washed with blocking buffer (SeaBlock (Pierce), 1% BSA, 0.05% Tween 20, 1 mM DTT) to remove unbound ligand and to reduce non-specific binding. Binding reactions were assembled by combining kinase, liganded affinity beads, and test compounds in 1× binding buffer (20% SeaBlock, 0.17×PBS, 0.05% Tween 20, 6 mM DTT). Test compounds were prepared as 100× stocks in DMSO and rapidly diluted into the aqueous environment. DMSO was added to control assays lacking a test compound. Primary screen interactions were performed in polypropylene 384-well plates in a final volume of 34 μL, while Kd determinations were performed in polystyrene 96-well plates in a final volume of 135 μL. The assay plates were incubated at room temperature with shaking for 1 hour, long enough for binding reactions to reach equilibrium, and the affinity beads were washed extensively with wash buffer (1× PBS, 0.05% Tween 20) to remove unbound protein. The beads were then resuspended in elution buffer (1× PBS, 0.05% Tween 20, 2 μM non-biotinylated affinity ligand) and incubated at room temperature with shaking for 30 min. The kinase concentration in the eluates was measured by quantitative PCR. Each kinase was tested individually against each compound. Kds were determined using eleven serial threefold dilutions. A selectivity score, which is a quantitative measure of selectivity of a compound against a panel of enzymes, may be calculated for a compound by dividing the number of enzymes for which a compound meets a set criteria, (for example, a binding constant of 100 nM or less), by the total number of enzymes tested.

[2] = target: T2, JAK2 (Homo sapiens, UniProt O60674); test: Competition binding assay, JAK2
T2 construct: made in house
Text: as §1, §2

[3] = target: T3, JAK3 (Homo sapiens, UniProt P52333); test: Competition binding assay, JAK3
T3 construct: made in house
T3 sequence (P52333 1-1124): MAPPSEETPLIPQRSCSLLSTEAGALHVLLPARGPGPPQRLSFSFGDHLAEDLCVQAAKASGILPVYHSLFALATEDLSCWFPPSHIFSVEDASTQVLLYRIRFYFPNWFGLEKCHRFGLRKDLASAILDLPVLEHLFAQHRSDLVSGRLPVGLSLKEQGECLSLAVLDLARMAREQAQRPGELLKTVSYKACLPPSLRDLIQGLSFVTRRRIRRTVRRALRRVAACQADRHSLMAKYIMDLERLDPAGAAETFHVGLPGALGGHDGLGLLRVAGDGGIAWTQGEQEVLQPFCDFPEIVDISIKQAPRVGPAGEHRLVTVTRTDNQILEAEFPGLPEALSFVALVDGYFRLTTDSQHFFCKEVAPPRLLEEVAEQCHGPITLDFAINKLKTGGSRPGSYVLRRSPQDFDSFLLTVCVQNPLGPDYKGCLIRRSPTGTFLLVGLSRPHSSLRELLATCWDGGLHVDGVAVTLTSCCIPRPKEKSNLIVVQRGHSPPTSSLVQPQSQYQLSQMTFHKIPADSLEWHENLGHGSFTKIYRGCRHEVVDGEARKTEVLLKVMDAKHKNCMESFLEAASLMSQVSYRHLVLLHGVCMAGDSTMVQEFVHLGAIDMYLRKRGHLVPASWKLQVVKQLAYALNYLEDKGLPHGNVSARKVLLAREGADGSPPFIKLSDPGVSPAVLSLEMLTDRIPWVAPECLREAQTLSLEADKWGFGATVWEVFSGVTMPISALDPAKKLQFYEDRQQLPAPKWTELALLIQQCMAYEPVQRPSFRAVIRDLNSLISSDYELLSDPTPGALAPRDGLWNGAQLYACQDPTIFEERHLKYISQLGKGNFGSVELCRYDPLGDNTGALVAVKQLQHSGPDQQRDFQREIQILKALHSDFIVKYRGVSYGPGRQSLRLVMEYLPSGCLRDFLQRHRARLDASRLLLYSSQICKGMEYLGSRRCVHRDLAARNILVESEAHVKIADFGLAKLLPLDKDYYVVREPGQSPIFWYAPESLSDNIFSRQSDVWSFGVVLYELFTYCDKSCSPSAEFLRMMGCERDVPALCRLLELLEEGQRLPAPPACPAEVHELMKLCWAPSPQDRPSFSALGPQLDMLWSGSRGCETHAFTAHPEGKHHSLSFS
Text: as §1, §2

[4] = test system: distinct kinases tested excluding mutant variants, typically 359 or 386 kinases; test: Kinase selectivity score from competition binding panel; settings: compound at 10 μM; fraction of kinases with inhibition of 90% or greater
Procedure: as §2

[5] = test system: GM-CSFR/JAK2/STAT5 pathway in CSTF-1 cells; test: CSTF-1 cell-based reporter assay (beta-lactamase, GM-CSF stimulated); set-up: species or system human; settings: Homo sapiens; GM-CSF at 2 ng/mL, 4 hours; read-out: Cell Assay: CS TF-1 reporter assay IC50
Procedure: CSTF-1 Cell-Based Reporter Assay
CSTF-1 cells are derived from the human erythroleukemia cell line that is growth dependent on GM-CSF and has an intact GM-CSFR/JAK2/STAT5 pathway. The cell line contains stably integrated beta-lactamase reporter gene under the control of the […] (irf 1) response element recognized by the activated transcription factor STATS. csTF-1 cells (Invitrogen K1219) were washed with assay media (97% OPTIMEM/ 0.5% dialyzed FBS/0.1 mM NEAA/1 mM Na pyr/P/S) and seeded in the same media at 5×10^5 cell/mL in T150 flask. After 16 hour incubation, cells were seeded at 2×10^5 cell/well in 50 μl volume, into Costar, clear bottom, 96-well assay plates. Serial dilutions of compounds were added to the plates with final DMSO concentration at 0.5% and GM-CSF at 2 ng/mL and the plates were then incubated at […] and 5% CO2 for 4 hours. The plates were brought to room temperature before adding Substrate Mixture according to manufacturer's protocol (Invitrogen, Catalog #K1085). The assay plates containing the substrate mixture were incubated in the dark at room temperature for 2 hours. Blue and green fluorescence was measured with excitation at 409 nm and emission at 460 nm (for blue) and excitation at 409 nm and emission at 530 nm (for green) using Spectra Max Gemini EM.

T2 sequence (O60674 whole entry): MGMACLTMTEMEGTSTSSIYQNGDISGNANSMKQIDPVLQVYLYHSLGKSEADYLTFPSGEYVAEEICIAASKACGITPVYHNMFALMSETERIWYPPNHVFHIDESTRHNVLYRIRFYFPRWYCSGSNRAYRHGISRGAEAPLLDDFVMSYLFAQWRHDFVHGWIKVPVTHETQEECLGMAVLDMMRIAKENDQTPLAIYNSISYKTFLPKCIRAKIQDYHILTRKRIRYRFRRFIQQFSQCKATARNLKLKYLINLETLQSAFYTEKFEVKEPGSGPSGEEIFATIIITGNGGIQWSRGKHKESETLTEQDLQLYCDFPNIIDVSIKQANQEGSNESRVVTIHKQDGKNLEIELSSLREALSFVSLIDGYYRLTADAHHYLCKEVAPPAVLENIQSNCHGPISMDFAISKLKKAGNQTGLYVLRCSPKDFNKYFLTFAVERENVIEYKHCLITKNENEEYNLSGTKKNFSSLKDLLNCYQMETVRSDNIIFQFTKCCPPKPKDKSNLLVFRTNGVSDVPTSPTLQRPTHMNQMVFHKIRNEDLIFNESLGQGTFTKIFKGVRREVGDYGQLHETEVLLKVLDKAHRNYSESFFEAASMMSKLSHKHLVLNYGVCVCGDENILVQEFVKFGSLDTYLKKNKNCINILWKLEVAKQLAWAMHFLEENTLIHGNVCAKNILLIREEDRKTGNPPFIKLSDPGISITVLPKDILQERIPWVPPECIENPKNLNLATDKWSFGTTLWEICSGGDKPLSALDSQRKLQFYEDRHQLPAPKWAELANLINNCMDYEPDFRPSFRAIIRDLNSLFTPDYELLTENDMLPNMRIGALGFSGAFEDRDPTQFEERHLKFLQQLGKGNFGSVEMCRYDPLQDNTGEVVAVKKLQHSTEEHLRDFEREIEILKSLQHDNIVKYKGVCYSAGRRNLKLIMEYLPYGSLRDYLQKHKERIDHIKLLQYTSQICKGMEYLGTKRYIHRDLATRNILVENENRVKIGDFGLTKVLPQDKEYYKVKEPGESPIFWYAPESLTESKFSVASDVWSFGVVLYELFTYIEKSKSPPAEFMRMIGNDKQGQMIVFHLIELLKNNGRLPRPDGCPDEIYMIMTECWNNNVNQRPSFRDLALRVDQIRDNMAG
T1 sequence (P29597 whole entry): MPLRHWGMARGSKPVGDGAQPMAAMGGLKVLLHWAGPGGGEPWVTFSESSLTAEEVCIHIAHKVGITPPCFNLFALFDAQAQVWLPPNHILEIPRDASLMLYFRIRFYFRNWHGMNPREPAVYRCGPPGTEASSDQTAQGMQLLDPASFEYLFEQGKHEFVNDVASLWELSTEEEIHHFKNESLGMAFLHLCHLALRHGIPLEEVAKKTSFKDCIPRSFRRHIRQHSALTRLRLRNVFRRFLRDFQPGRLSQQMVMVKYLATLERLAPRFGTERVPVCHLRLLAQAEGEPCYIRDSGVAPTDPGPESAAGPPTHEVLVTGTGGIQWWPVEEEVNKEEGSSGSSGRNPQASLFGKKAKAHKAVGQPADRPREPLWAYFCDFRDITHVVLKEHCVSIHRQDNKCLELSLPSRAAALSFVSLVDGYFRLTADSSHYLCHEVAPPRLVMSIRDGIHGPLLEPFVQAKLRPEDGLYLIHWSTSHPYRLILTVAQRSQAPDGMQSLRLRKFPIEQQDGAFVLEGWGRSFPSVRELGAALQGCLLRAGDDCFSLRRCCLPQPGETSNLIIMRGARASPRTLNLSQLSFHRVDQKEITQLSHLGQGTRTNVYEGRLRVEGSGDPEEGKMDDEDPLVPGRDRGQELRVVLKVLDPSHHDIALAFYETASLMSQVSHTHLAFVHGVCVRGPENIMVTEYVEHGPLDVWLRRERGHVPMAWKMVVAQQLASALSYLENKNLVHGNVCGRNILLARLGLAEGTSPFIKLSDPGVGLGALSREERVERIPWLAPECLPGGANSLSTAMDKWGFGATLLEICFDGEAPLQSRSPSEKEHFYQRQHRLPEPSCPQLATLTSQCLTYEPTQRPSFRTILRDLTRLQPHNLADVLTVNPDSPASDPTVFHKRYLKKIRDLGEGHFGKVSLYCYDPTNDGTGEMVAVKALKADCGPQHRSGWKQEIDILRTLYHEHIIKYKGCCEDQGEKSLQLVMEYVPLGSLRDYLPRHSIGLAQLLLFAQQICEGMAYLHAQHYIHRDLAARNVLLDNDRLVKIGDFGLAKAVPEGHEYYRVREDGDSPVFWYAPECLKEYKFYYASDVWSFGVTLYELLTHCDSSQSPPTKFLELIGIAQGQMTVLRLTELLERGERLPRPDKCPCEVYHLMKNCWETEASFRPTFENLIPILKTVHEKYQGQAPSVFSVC

SMILES: Cc1cc(Nc2nc(C(=O)c3ccc(F)cc3)nc3sccc23)n[nH]1 [Example 3, (4-fluorophenyl)(4-(5-methyl-1H-pyrazol-3-ylamino)thieno[2,3-d]pyrimidin-2-yl)methanone]
- Kd [1]: 10 to 100 nM
- Kd [2]: ≤ 1 nM
- Kd [3]: ≤ 10 nM
- S-Score: S(10) at 10 μM [4]: B (0.3 < B ≦ 0.4)
- IC50 [5]: ≤ 100 nM

SMILES: Cc1cc(Nc2nc(C(=O)c3ccc(F)cc3)nc3ccsc23)n[nH]1 [Example 5, (4-fluorophenyl)(4-(5-methyl-1H-pyrazol-3-ylamino)thieno[3,2-d]pyrimidin-2-yl)methanone]
- Kd [1]: 10 to 100 nM
- Kd [2]: ≤ 1 nM
- Kd [3]: ≤ 10 nM
- S-Score: S(10) at 10 μM [4]: A (A ≦ 0.3)
- IC50 [5]: ≤ 100 nM

SMILES: Cc1cc(Nc2nc(C(F)(F)c3ccc(F)cc3)nc3ccsc23)n[nH]1 [Example 7, 2-(difluoro(4-fluorophenyl)methyl)-N-(5-methyl-1H-pyrazol-3-yl)thieno[3,2-d]pyrimidin-4-amine]
- Kd [1]: ≤ 10 nM
- Kd [2]: ≤ 1 nM
- Kd [3]: ≤ 10 nM
- S-Score: S(10) at 10 μM [4]: C (0.4 < C ≦ 0.5)
- IC50 [5]: ≤ 100 nM

SMILES: Fc1ccc(C(F)(F)c2nc(Nc3cc[nH]n3)c3sccc3n2)cc1 [Example 8, 2-(difluoro(4-fluorophenyl)methyl)-N-(1H-pyrazol-3-yl)thieno[3,2-d]pyrimidin-4-amine]
- Kd [1]: ≤ 10 nM
- Kd [2]: ≤ 1 nM
- Kd [3]: 10 to 100 nM
- S-Score: S(10) at 10 μM [4]: A (A ≦ 0.3)
- IC50 [5]: ≤ 100 nM

SMILES: Cc1cc(Nc2nc(C(=O)c3ccc(F)cc3)nc3scc(C)c23)n[nH]1 [Example 10, (4-fluorophenyl)(5-methyl-4-(5-methyl-1H-pyrazol-3-ylamino)thieno[2,3-d]pyrimidin-2-yl)methanone]
- Kd [1]: > 100 nM
- Kd [2]: > 10 nM
- Kd [3]: > 100 nM
- S-Score: S(10) at 10 μM [4]: A (A ≦ 0.3)
- IC50 [5]: > 500 nM

SMILES: Cc1csc2nc(C(=O)c3ccc(F)cc3)nc(Nc3cc[nH]n3)c12 [Example 12, (4-(1H-pyrazol-3-ylamino)-5-methylthieno[2,3-d]pyrimidin-2-yl)(4-fluorophenyl)methanone]
- Kd [1]: > 100 nM
- Kd [2]: > 10 nM
- Kd [3]: > 100 nM
- S-Score: S(10) at 10 μM [4]: A (A ≦ 0.3)
- IC50 [5]: > 500 nM

SMILES: Cc1cc(Nc2nc(C(F)(F)c3ccc(F)cc3)nc3sc(C)cc23)n[nH]1 [Example 14, 2-(difluoro(4-fluorophenyl)methyl)-6-methyl-N-(5-methyl-1H-pyrazol-3-yl)thieno[2,3-d]pyrimidin-4-amine]
- Kd [1]: ≤ 10 nM
- Kd [2]: ≤ 1 nM
- Kd [3]: 10 to 100 nM
- S-Score: S(10) at 10 μM [4]: A (A ≦ 0.3)
- IC50 [5]: ≤ 100 nM

SMILES: Cc1cc2c(Nc3cc[nH]n3)nc(C(F)(F)c3ccc(F)cc3)nc2s1 [Example 15, 2-(difluoro(4-fluorophenyl)methyl)-6-methyl-N-(1H-pyrazol-3-yl)thieno[2,3-d]pyrimidin-4-amine]
- Kd [1]: > 100 nM
- Kd [2]: 1 to 10 nM
- Kd [3]: 10 to 100 nM
- S-Score: S(10) at 10 μM [4]: A (A ≦ 0.3)
- IC50 [5]: 100 to 500 nM

SMILES: COC(c1ccc(F)cc1)c1nc(Nc2cc(C)[nH]n2)c2sccc2n1 (stereo not shown) [Example 19, 2-((4-fluorophenyl)(methoxy)methyl)-N-(5-methyl-1H-pyrazol-3-yl)thieno[3,2-d]pyrimidin-4-amine]
- Kd [1]: 10 to 100 nM
- Kd [2]: 1 to 10 nM
- Kd [3]: 10 to 100 nM
- S-Score: S(10) at 10 μM [4]: A (A ≦ 0.3)
- IC50 [5]: 100 to 500 nM

SMILES: Cc1cc(Nc2nc(C(=O)c3ccc(F)cc3)nc3cc(C)sc23)n[nH]1 [Example 20, (4-fluorophenyl)(6-methyl-4-(5-methyl-1H-pyrazol-3-ylamino)thieno[3,2-d]pyrimidin-2-yl)methanone]
- Kd [1]: 10 to 100 nM
- Kd [2]: ≤ 1 nM
- Kd [3]: ≤ 10 nM
- S-Score: S(10) at 10 μM [4]: B (0.3 < B ≦ 0.4)
- IC50 [5]: ≤ 100 nM

SMILES: Cc1cc(Nc2nc(C(=O)c3ccc(F)cc3)nc3c(C)csc23)n[nH]1 [Example 22, (4-fluorophenyl)(7-methyl-4-(5-methyl-1H-pyrazol-3-ylamino)thieno[3,2-d]pyrimidin-2-yl)methanone]
- Kd [1]: > 100 nM
- Kd [2]: 1 to 10 nM
- Kd [3]: > 100 nM
- S-Score: S(10) at 10 μM [4]: A (A ≦ 0.3)
- IC50 [5]: 100 to 500 nM
